# Where two headings read alike, the source gives them in different places.
# Experiments:
# [1] = test system: pERK, pAKT, pS6 (EGFR sub-signal) in Ba/F3 Del19/T790M/C797S cell line; assay: EGFR sub-signal activity (pERK, pAKT, pS6) alone or in combination with cetuximab; format: cell-based; conditions: for activity in pERK, pAKT, pS6 (EGFR sub-signal) when administered alone: 30, 100, 300, 1000 nM alone; for sub-signal activity when administered in combination with cetuximab: 30, 100, 300, 1000 nM plus 10 μg cetuximab; for sub-signal activity compared with brigatinib in combination with cetuximab: vs brigatinib plus cetuximab
# Method: In addition, when administering each of brigatinib, the compounds of Examples 10 and 11 of the present invention in 30, 100, 300, 1000 nM alone or in combination with 10 μg of cetuximab, the sub-signal activity on a/F3 Del19/T790M/C797S cell line was evaluated and the results are shown in FIGS. 5 to 7.
# FLT3(K663Q) = FLT3(K663Q) (Homo sapiens (Human), UniProt P36888, K663Q); assay: KINOMEscan binding, FLT3(K663Q)
# Method: (§1) The inhibitory activity on FLT kinase, such as wild-type FLT1, FLT3, FLT4, and FLT3 mutation forms, FLT3(D835H), FLT3(D835V), FLT3(D835Y), FLT3(ITD), FLT3(ITD,D835V), FLT3(ITD,F691L), FLT3(K663Q), FLT3(N841I), FLT3(R834Q) was measured.
# (§2) FLT3 kinase inhibition was carried out by KINOMEscan method (DiscoverX Inc.). KINOMEscan method consists of the following processes. T7 bacteriophage labeled with FLT kinase was cultured by the infection to E. coli derived from BL21. After the infection of E. coli in the condition of 0.4 of MOI (multiplicity of infection), it was cultured for 90 to 150 minutes at 32° C. to lyse E. coli. The cell debris was removed by centrifugation and filtration, and the kinase protein present in the supernatant was secured. Additionally, the kinase protein was labeled with DNA for the qPCR measurement. The magnetic beads labeled with streptavidin were treated with the standard compound labeled with biotin and reacted for 30 minutes. The resulting beads were used as affinity beads for the measurement of a kinase activity. The binding reaction was initiated with mixing a kinase protein, the affinity beads bound with a ligand, and the compound. In this case, the used buffer solution was 20% SeaBlock, 0.17×PBS, 0.05% Tween 20, 6 mM DTT. […] The affinity of the compound to be tested was indirectly measured by Quantifying the eluted kinase by […].
# EGFR wt. = EGFR wt. (Homo sapiens (Human), UniProt P00533); assay: HTRF enzyme assay, wild-type EGFR; format: biochemical; conditions: recombinant enzyme
# Method: (§3) The measurement of an activity on wild-type and EGFR mutation enzyme of the compound of the present invention was experimented by utilizing the HTRF system sold by Cisbio, as follow.
# (§4) The composition of the assay buffer used in the activity measurement was 50 mM Tris-HCl pH 7.5, 100 mM NaCl, 7.5 mM MgCl2, 3 mM KCl, 0.01% Tween 20, 0.1% BSA, 1 mM DTT. The enzymatic reaction was carried out hereto by using the peptide substrate labeled with ATP of […] concentration and biotin of […] concentration. The analysis of an EGFR activity inhibitory effect of the compound was carried out in accordance with the analysis reaction recipe below.
# (§5) Component 1: […] of EGFR wild-type or mutation enzyme
# (§6) Component 2: […] of compound solution
# (§7) Component 3: […] of peptide labeled with ATP and biotin
# (§8) The enzymatic reaction was initiated by mixing Component 1 and Component 2 first, and then, adding component 3. After the reaction for 2 hours at 37° C., […] of a measurement solution consisting of streptavidin-XL665 provided by Cisbio and anti-phosphotyrosine antibody labeled with europium was added to the enzymatic reaction solution and reacted for 1 hour at ambient temperature. […] The measurement values measured at the seven concentrations of the compound were analyzed by using the Prism program (version 5.01, Graphpad Software, Inc.), and IC50 value of the compound was calculated, which is an inhibitory ability indicator.
# EGFR del19/T790M/C797S = EGFR del19/T790M/C797S (Homo sapiens, UniProt P00533, C797S/DEL746-750/T790M); assay: HTRF enzyme assay, EGFR del19/T790M/C797S; format: biochemical
# Method: as §3, §4, §5, §6, §7, §8
# FLT3(D835Y) = FLT3(D835Y) (Homo sapiens (Human), UniProt P36888, D835Y); assay: KINOMEscan binding, FLT3(D835Y)
# Method: as §1, §2
# FLT1 = FLT1 (Homo sapiens (Human), UniProt P17948); assay: KINOMEscan binding, FLT1
# Method: as §1, §2
# [2] = test system: Ba/F3 EGFR del19/T790M/C797S cell line; assay: CellTiter-Glo cell viability, Ba/F3 EGFR del19/T790M/C797S; format: cell-based; conditions: read-out: Ba/F3 EGFR del19/T790M/C797S IC50
# Method: (§9) The measurement of an activity on wild-type and mutation Ba/F3 EGFR cell line of the compound of the present invention was experimented by utilizing the CellTiter-Glo system sold by Promega, as follow. The CellTiter-Glo assay is a method for measuring the ATP present in cells in cell culture conditions to determine the cell viability.
# (§10) The analysis of an EGFR inhibitory ability effect of the compound was carried out in accordance with the analysis reaction recipe below.
# After the reaction of 72 hours, the plate treated with the compound was allowed to stand for 30 minutes at ambient temperature, and then, was further treated with 100 μl of the reagent, and was shaked for 10 minutes at ambient temperature.
# FLT3(D835V) = FLT3(D835V) (Homo sapiens (Human), UniProt P36888, D835V); assay: KINOMEscan binding, FLT3(D835V)
# Method: as §1, §2
# Ba/F3 EGFR wt. cell line = assay: CellTiter-Glo cell viability, Ba/F3 EGFR wild-type; format: cell-based; conditions: 72 hours
# Method: as §9, §10
# (§11) After the reaction of 72 hours, the plate treated with the compound was allowed to stand for 30 minutes at ambient temperature, and then, was further treated with 100 μl of the reagent, and was shaked for 10 minutes at ambient temperature. […] The measurement values measured at the eight concentrations of the compound were analyzed by using the Prism program (version 5.01, Graphpad Software, Inc.), and IC50 value of the compound was calculated, which is an inhibitory ability indicator.
# FLT3(D835H) = FLT3(D835H) (Homo sapiens (Human), UniProt P36888, D835H); assay: KINOMEscan binding, FLT3(D835H)
# Method: as §1, §2
# [3] = test system: Ba/F3 EGFR del19 cell line; assay: CellTiter-Glo cell viability, Ba/F3 EGFR del19; format: cell-based; conditions: 72 hours
# Method: as §9, §10, §11
# EGFR del19/T790M = EGFR del19/T790M (Homo sapiens (Human), UniProt P00533, DEL746-750/T790M); assay: HTRF enzyme assay, EGFR del19/T790M; format: biochemical; conditions: recombinant enzyme
# Method: as §3, §4, §5, §6, §7, §8
# FLT3(ITD, F691L) = FLT3(ITD, F691L) (Homo sapiens, UniProt P36888, F691L/ITD); assay: KINOMEscan binding, FLT3(ITD, F691L)
# Method: as §1, §2
# EGFR wt., sequence (P00533 25-1210): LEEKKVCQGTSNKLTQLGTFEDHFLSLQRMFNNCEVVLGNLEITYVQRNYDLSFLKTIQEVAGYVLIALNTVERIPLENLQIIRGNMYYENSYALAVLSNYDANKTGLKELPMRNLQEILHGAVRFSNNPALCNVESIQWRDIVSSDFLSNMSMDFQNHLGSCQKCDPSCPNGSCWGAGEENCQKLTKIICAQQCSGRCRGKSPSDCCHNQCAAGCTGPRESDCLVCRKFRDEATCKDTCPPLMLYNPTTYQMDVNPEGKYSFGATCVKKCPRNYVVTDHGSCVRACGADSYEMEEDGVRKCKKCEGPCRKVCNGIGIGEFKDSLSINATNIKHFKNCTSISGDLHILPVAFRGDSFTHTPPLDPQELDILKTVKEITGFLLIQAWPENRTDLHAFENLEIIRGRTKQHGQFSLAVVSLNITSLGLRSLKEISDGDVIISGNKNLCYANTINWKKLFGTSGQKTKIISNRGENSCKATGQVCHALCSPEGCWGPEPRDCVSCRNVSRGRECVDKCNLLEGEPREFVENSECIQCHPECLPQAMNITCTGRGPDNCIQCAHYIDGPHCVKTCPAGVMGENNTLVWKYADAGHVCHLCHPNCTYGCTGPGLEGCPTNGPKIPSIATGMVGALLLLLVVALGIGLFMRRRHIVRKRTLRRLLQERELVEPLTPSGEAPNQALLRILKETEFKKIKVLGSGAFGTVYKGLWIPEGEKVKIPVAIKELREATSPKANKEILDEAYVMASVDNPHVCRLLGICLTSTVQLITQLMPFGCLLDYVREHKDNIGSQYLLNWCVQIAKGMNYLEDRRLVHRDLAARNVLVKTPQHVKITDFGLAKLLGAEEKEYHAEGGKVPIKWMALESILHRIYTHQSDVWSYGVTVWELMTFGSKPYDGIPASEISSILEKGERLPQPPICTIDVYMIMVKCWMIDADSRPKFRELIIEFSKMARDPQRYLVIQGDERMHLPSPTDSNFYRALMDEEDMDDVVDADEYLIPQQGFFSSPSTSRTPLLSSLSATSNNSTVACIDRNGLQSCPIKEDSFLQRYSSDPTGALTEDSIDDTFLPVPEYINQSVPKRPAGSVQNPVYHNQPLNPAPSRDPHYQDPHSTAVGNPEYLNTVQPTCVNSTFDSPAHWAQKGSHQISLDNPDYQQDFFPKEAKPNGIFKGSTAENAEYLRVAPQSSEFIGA
# FLT1, sequence (P17948 27-1338): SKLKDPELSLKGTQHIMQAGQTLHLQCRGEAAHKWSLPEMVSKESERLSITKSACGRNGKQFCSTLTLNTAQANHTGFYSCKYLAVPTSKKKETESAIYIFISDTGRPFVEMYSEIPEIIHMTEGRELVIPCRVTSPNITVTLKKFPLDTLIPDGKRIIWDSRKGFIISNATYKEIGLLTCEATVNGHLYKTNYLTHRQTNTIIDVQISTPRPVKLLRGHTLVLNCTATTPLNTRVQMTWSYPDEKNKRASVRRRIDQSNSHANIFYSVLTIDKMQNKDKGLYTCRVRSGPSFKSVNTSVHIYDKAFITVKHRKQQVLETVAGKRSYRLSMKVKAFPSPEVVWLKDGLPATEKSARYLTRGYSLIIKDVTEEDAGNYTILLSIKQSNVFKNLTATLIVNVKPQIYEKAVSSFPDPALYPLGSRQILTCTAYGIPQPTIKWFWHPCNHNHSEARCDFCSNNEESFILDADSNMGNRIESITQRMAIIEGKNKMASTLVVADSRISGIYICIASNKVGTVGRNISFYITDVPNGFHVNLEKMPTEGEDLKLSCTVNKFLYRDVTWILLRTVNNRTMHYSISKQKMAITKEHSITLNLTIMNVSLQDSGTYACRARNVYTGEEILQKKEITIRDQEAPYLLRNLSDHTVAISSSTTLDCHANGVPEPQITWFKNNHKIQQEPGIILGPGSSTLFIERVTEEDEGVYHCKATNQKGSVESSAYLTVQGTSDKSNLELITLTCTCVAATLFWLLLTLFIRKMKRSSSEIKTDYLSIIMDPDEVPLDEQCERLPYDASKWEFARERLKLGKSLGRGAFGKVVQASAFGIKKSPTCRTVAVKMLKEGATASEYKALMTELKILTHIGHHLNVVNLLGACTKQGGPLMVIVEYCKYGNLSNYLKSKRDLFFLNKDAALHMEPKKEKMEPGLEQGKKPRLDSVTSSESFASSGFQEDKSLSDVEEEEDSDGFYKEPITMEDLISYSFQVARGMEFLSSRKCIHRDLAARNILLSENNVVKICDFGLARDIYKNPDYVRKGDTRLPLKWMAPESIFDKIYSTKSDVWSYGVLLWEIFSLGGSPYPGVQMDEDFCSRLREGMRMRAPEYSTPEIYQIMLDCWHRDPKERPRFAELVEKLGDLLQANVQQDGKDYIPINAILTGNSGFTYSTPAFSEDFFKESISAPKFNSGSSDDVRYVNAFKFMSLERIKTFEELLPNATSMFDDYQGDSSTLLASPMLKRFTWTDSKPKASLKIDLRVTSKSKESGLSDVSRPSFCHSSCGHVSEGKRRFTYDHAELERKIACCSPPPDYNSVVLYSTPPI
# EGFR del19/T790M/C797S, sequence (P00533 with tags, fused parts or gaps C797S/DEL746-750/T790M limits assumed): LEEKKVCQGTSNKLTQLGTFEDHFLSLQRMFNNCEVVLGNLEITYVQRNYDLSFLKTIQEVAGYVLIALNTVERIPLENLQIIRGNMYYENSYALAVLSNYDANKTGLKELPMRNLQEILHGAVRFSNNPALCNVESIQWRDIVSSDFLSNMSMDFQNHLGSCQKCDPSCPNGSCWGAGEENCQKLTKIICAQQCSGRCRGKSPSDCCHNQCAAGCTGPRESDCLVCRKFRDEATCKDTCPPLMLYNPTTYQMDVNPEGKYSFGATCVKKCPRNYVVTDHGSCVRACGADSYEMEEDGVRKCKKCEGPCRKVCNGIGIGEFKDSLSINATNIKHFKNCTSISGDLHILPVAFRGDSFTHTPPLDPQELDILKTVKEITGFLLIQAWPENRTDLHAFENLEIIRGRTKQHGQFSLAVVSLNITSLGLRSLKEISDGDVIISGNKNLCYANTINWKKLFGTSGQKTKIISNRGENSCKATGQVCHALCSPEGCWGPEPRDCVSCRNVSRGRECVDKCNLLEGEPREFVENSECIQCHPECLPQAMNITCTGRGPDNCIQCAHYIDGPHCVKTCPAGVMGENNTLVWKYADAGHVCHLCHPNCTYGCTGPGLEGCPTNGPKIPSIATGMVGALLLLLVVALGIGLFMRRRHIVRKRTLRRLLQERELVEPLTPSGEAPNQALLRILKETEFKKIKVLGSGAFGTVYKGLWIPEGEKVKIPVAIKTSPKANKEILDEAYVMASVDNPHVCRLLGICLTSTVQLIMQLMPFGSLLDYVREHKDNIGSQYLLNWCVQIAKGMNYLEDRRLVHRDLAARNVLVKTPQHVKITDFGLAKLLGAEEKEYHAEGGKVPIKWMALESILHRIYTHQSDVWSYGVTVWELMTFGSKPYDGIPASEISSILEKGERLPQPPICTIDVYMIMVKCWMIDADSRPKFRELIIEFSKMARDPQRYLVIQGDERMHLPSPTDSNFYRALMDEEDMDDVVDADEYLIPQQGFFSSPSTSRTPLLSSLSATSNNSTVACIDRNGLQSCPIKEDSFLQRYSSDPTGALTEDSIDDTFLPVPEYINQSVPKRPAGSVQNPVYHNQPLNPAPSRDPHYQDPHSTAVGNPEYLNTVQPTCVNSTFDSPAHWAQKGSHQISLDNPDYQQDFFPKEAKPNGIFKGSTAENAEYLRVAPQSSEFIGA
# EGFR del19/T790M, sequence (P00533 other isoform, or with tags, fused parts or gaps T790M/del 1-668/del 746-750 limits assumed): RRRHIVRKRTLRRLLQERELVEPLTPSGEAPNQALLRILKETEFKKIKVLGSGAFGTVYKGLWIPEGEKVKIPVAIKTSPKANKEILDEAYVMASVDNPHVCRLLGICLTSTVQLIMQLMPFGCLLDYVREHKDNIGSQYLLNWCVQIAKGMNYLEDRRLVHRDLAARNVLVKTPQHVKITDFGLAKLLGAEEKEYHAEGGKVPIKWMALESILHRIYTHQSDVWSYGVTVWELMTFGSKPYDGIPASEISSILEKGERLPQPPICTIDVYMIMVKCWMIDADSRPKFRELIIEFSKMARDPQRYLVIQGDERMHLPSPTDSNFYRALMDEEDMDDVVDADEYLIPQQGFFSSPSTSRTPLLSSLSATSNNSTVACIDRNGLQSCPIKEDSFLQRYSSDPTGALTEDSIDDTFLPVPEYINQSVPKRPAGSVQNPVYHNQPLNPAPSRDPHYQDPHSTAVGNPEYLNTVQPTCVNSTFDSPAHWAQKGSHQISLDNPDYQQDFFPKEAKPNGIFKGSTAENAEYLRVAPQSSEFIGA
SMILES,"activity in pERK, pAKT, pS6 (EGFR sub-signal) when administered alone [1]",sub-signal activity when administered in combination with cetuximab [1],sub-signal activity compared with brigatinib in combination with cetuximab [1],Kd (FLT3(K663Q)) [nM],IC50 (EGFR wt.) [nM],IC50 (EGFR del19/T790M/C797S) [nM],Kd (FLT3(D835Y)) [nM],Kd (FLT1) [nM],IC50 ([2]; 72 h) [nM],Kd (FLT3(D835V)) [nM],IC50 (Ba/F3 EGFR wt. cell line) [nM],Kd (FLT3(D835H)) [nM],IC50 [3] [nM],IC50 (EGFR del19/T790M) [nM],"Kd (FLT3(ITD, F691L)) [nM]","IC50 (EGFR del19/T790M/C797S; HTRF, recombinant enzyme, read-out: EGFR del19/T790M/C797S IC50) [nM]","IC50 ([2]; CellTiter-Glo, 72 hours) [nM]"
"COc1cc(N2CCC(N3CCN(C)CC3)CC2)ccc1Nc1ncc(Cl)c(Nc2ccccc2NS(C)(=O)=O)n1 [Example 10, N-(2-((5-chloro-2-((2-methoxy-4-(4-(4-methylpiperazin-1-yl)piperidin-1-yl)phenyl)amino)pyrimidin-4-yl)amino)phenyl)methanesulfonamide]",concentration-dependent activity,superior activity,superior activity,39,430,0.2,4.2,> 10000,63,0.29,1000,38,180,4,1.1,–,–
"COc1cc(N2CCC(N(C)C)CC2)ccc1Nc1ncc(Cl)c(Nc2ccccc2NS(C)(=O)=O)n1 [Example 11, N-(2-((5-chloro-2-((4-(4-(dimethylamino)piperidin-1-yl)-2-methoxyphenyl)amino)pyrimidin-4-yl)amino)phenyl)methanesulfonamide]",concentration-dependent activity,superior activity,superior activity,20,280,–,1.5,910,–,0.082,340,1.8,4.7,3.1,0.27,6,38

# — patent publication US11253516B2, “N2,N4-diphenylpyrimidine-2,4-diamine derivative, method for preparing same, and pharmaceutical composition containing same as active ingredient for prevention or treatment of cancer” (Korea Research Institute of Chemical Technology, priority 2017, dated 2022)
